Laboratory results published in PubChem BioAssay (NCI).
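A five-concentration, 48-hour dose response in 96-well plates underlies each endpoint, interpolated linearly between surrounding concentrations. TGI: concentration producing complete growth inhibition.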

Experiments:
Assay in all cases: growth of human tumour cells (NCI), 48 h
NCI/ADR-RES ovarian = system: NCI/ADR-RES ovarian
A498 renal = system: A498 renal
UACC-62 melanoma = system: UACC-62 melanoma
HOP-62 NSCLC = system: HOP-62 NSCLC
MOLT-4 leukemia = system: MOLT-4 leukemia
SW-620 colon = system: SW-620 colon
BT-549 breast = system: BT-549 breast
HT29 colon = system: HT29 colon
HCT-15 colon = system: HCT-15 colon
DU-145 prostate = system: DU-145 prostate
HL-60(TB) leukemia = system: HL-60(TB) leukemia
MDA-MB-231 breast = system: MDA-MB-231 breast
HCC-2998 colon = system: HCC-2998 colon
MDA-MB-435 = system: MDA-MB-435
RPMI-8226 leukemia = system: RPMI-8226 leukemia
A549 NSCLC = system: A549 NSCLC

Structure (SMILES) | TGI (NCI/ADR-RES ovarian) [µM] | TGI (A498 renal) [µM] | TGI (UACC-62 melanoma) [µM] | TGI (HOP-62 NSCLC) [µM] | TGI (MOLT-4 leukemia) [µM] | TGI (SW-620 colon) [µM] | TGI (BT-549 breast) [µM] | TGI (HT29 colon) [µM] | TGI (HCT-15 colon) [µM] | TGI (DU-145 prostate) [µM] | TGI (HL-60(TB) leukemia) [µM] | TGI (MDA-MB-231 breast) [µM] | TGI (HCC-2998 colon) [µM] | TGI (MDA-MB-435) [µM] | TGI (RPMI-8226 leukemia) [µM] | TGI (A549 NSCLC) [µM]
COc1ccc(/C(=N/Nc2nc3ccccc3n2Cc2ccccc2)C(=O)O)cc1 | 54 | 44.5 | 21.4 | > 100 | 79.6 | > 100 | > 100 | > 100 | > 100 | > 100 | 11.5 | 80.2 | 48.3 | > 100 | 55.8 | > 100
CC1=C(C)C2(C#N)C(=O)N3C(=NC(c4ccco4)NC3c3ccco3)C2(C#N)C(c2ccco2)N1 (stereo not given) | > 100 | > 100 | > 100 | > 100 | > 100 | > 100 | > 100 | > 100 | > 100 | > 100 | > 100 | > 100 | > 100 | > 100 | > 100 | > 100
CN1C(=O)C(O)CC1c1ccccc1F (stereo not given) | > 100 | > 100 | > 100 | > 100 | > 100 | > 100 | > 100 | > 100 | > 100 | > 100 | > 100 | > 100 | > 100 | > 100 | > 100 | > 100
C[C@H]1[C@H]2[C@H](C[C@@]3(C)C4=CC[C@H]5C(C)(C)[C@@H](OC6OCC(O)C(O)C6O)CC[C@@]56C[C@@]46CC[C@]23C)O[C@@]2(O)[C@@H]1OC(C)(C)[C@H]2O (stereo not given in full) | 9.94 | 4.95 | 5.32 | 5.7 | 24.2 | 3.74 | 8.78 | 8.97 | 3.43 | 1.91 | 28.8 | 6.9 | 1.45 | 2.17 | 4.68 | 5.5
C=C(Cl)[C@](Cl)(CBr)CC[C@@H](Br)C(C)(C)Cl | 4.32 | 3.41 | 19.3 | 0.9 | 31.9 | 5.03 | 11.7 | 2.06 | 4.64 | 2.74 | 2.06 | 3.39 | 2.93 | 4.03 | 0.363 | 5.49
COC1=CC(=O)C2=C(C1=O)[C@H]1CC[C@]3(C)C(=O)CC[C@H]3[C@@H]1CC2 | > 100 | > 100 | > 100 | > 100 | > 100 | 67.7 | 71.2 | 75.3 | > 100 | 57.1 | 22.4 | 16.9 | > 100 | 45.6 | 81.3 | > 100
CC1CCC2C(C)C(OC(=O)CCC(=O)O)OC3OC4(C)CCC1C32OO4 (stereo not given) | > 100 | > 100 | > 100 | > 100 | 15 | > 100 | > 100 | > 100 | > 100 | 63.4 | 4.65 | > 100 | 54.3 | 13.6 | 24.1 | 29.9
COC(=O)C1=C(N)C2=C(N)Oc3ccccc3C2CC1=C(C#N)C#N (stereo not given) | 47.5 | 68.6 | 36.3 | > 100 | > 100 | > 100 | 58.2 | 53.3 | 36.8 | 61.9 | > 100 | 59.4 | 32.9 | > 100 | 48.6 | > 100
CN(C)/C=N/c1cc(=O)n(C)c(=O)n1C | > 100 | > 100 | > 100 | > 100 | > 100 | > 100 | > 100 | > 100 | > 100 | > 100 | > 100 | > 100 | > 100 | > 100 | > 100 | > 100
COC(=O)NCCc1[nH]nc2c1C(=O)C=C(Nc1ccccc1OC)C2=O | 52.1 | > 100 | 39.9 | > 100 | 55.1 | 47.8 | > 100 | > 100 | > 100 | > 100 | 52.7 | 94.3 | 40.3 | 30.8 | > 100 | > 100
CC(=O)n1nc(-c2[nH]c(C)c(-c3nn(C(C)=O)c(=S)o3)c2C)oc1=S | > 100 | > 100 | > 100 | > 100 | > 100 | > 100 | > 100 | > 100 | > 100 | > 100 | > 100 | > 100 | > 100 | > 100 | > 100 | > 100
O=[N+]([O-])c1ccc(C2Nn3c(nnc3-c3cccc([N+](=O)[O-])c3)S2)cc1 (stereo not given) | > 100 | > 100 | > 100 | > 100 | > 100 | > 100 | > 100 | > 100 | > 100 | > 100 | > 100 | > 100 | > 100 | > 100 | > 100 | > 100
CN1CCOC1(C)c1ccccc1 (stereo not given) | > 100 | > 100 | > 100 | > 100 | > 100 | > 100 | > 100 | > 100 | > 100 | > 100 | > 100 | > 100 | > 100 | > 100 | > 100 | > 100
CC(=O)OC1CCn2c1nc1c2C(=O)C=C(N2CC2)C1=O (stereo not given) | 1.28 | 0.613 | 0.214 | 4.69 | 0.208 | 0.146 | 2.54 | 2.08 | 1.96 | 12.7 | 0.494 | 3.92 | 3.07 | 1.71 | 1.37 | 6.25
O=C(CNc1ccc([N+](=O)[O-])cc1)Nn1c(-c2ccccc2)nc2ccccc2c1=O | 7.65 | 19.3 | 2.19 | 16.5 | 10.6 | 5.02 | 4.25 | 13.6 | 7.64 | 23.3 | 14 | 9.4 | 22.6 | 14.6 | 14.8 | 25.8
COc1ccc(/C=N/NS(=O)(=O)c2ccc(/C=C3\NC(=O)NC3=O)cc2)cc1 | > 100 | > 100 | > 100 | > 100 | > 100 | > 100 | > 100 | > 100 | > 100 | > 100 | > 100 | > 100 | > 100 | > 100 | > 100 | > 100
COc1cc2c(cc1OC)C1CN3CCCC3C(O)C1c1cc(OC)c(OC)cc1-2 (stereo not given) | > 100 | > 100 | > 100 | > 100 | > 100 | > 100 | > 100 | > 100 | > 100 | > 100 | > 100 | > 100 | > 100 | > 100 | > 100 | > 100
O=c1c2c3c(sc2nc2n1sc1nc4sc5c(c4c(=O)n12)CCCC5)CCCC3 | > 71.4 | > 100 | > 100 | > 100 | > 66.9 | 63.5 | 42.4 | > 58.8 | > 100 | > 74.3 | 62.3 | > 69.5 | > 76.8 | > 100 | > 63.2 | > 100
O=[N+]([O-])c1ccccc1S(=O)(=O)c1cccc2c1NCCC2 | > 100 | > 100 | > 100 | > 100 | > 100 | > 100 | > 100 | > 100 | > 100 | > 100 | > 100 | > 100 | > 100 | > 100 | > 100 | > 100
O=c1c2ccccc2nc(-c2ccccc2)n1/N=C/c1ccccc1[N+](=O)[O-] | > 100 | > 100 | > 100 | 37.1 | > 100 | > 100 | > 100 | > 100 | > 100 | > 100 | > 100 | > 72.8 | > 100 | > 100 | > 100 | > 100
